{"source": "patent US6551774B1", "about": "“Diagnostic methods for conditions associated with elevated cellular levels of telomerase activity” (Board of Regents, The University of Texas System, priority 1992, dated 2003)", "key": {"[1]": {"target": "T1, Tetrahymena thermophila telomerase (Tetrahymena thermophila, UniProt O77448)", "T1 construct": "A standard assay contained 50% by volume of heparin-agarose purified telomerase; endogenous in cells; host or cells: Tetrahymena thermophila cell extracts, heparin-agarose purified", "T1 sequence (O77448 1-1117)": "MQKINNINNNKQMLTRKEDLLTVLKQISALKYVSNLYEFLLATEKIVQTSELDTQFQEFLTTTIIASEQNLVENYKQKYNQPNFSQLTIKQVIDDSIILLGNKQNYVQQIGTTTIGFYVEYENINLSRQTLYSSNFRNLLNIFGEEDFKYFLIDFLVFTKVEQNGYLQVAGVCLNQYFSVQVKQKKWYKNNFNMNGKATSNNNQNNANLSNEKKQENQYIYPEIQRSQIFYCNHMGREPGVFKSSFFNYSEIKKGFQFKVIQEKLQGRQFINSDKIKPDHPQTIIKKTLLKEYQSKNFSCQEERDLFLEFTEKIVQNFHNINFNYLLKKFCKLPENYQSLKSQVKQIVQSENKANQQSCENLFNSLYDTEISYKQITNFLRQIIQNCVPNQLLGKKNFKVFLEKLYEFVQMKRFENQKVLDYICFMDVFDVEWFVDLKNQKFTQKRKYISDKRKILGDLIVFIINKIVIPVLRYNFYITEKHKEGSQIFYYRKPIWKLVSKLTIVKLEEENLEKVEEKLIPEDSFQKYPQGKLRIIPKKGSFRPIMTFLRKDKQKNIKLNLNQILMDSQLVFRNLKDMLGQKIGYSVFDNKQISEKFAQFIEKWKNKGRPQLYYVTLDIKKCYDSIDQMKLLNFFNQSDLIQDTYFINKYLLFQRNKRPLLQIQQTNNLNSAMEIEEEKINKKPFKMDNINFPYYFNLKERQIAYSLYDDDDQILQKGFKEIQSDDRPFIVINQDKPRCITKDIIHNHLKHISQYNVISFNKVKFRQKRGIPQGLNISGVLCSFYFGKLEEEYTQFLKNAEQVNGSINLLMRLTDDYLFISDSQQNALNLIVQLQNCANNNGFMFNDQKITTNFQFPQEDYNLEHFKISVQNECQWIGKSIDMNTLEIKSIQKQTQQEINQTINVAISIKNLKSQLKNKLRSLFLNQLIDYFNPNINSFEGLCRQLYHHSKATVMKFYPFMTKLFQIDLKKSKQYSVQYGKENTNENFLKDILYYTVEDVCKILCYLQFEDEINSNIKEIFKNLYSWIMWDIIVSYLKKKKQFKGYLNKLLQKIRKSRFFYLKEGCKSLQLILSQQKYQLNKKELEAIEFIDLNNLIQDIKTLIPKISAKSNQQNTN", "T1 sequence (W7X6T2 1-542 partner)": "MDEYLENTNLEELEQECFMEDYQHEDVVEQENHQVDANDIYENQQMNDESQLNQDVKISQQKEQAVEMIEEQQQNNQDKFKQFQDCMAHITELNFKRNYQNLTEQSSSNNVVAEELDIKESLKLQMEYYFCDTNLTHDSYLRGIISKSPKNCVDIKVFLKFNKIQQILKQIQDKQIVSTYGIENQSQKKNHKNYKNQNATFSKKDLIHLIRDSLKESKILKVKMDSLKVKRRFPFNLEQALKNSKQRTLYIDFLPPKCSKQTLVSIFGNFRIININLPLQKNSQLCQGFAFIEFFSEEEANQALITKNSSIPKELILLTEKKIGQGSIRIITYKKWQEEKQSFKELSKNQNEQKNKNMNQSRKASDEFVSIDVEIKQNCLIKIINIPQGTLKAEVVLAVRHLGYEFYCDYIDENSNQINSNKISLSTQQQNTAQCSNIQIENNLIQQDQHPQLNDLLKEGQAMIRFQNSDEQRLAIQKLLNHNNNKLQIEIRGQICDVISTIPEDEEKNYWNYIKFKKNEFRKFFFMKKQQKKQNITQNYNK", "test": "Tetrahymena telomerase in vitro assay (incorporation of 32P label, gel of products)", "assay_type": "biochemical", "details": "for Km: from competition of unlabeled with 32P-labeled nucleotide; for position on the telomerase RNA template of strongest chain termination: template residues numbered 1 to 9 (5′ to 3′); for effect on the telomerase reaction: dideoxynucleoside triphosphates", "description": "AZT-triphosphate was obtained from Burroughs Wellcome, N.C. Ara-G-triphosphate was purchased from Calbiochem and ddNTPs from Sigma. Reaction mixes were kept on ice until ready for use, and then mixed into tubes containing analog for incubation at 30° C. Reaction times were thirty minutes. […] Identical reactions were run without primers as controls. […] Incorporation of ^32P label from either ^32P-TTP or ^32P-dGTP was measured to monitor the reaction rate.\nThe standard telomerase assay used in this example consists of incorporation of dGTP and TTP substrates, one triphosphate ^32P-labeled, into synthesized DNA in the reaction shown in FIG. 18A. […] Incorporation of ^32P label from either ^32P-TTP or ^32P-dGTP was measured to monitor the reaction rate, and the distributions of elongation products were analyzed by denaturing polyacrylamide gel electrophoresis."}, "Tetrahymena cells [2]": {"system": "Tetrahymena cells", "test": "Progeny formation (cycloheximide resistance) of Tetrahymena conjugated in the presence of analog", "assay_type": "cell-based, Tetrahymena thermophila", "details": "for % CHX-R: 0.017 mM analog (head prints MM)", "description": "For analysis of cycloheximide (CHX) sensitivity of cells conjugated in the presence of analog, 50 ml cultures of each cell type were grown overnight in 2% PPYS, starved in Dryl's for 18 hours, mated (5×10^5 cells/ml) for 6 hours, then analog was added. Cells were allowed to complete mating in the presence of the analog. Twenty-four hours after mixing, cells were diluted in Dryl's solution, counted and plated at 1 cell per well of 96-well plates in 1% PPYS without analog. Cells were grown for 4 days in a humid chamber at 30° C., without shaking. Cells were then replica plated into 1% PPYS plus 15 μg/ml cycloheximide, allowed to grow for four days before scoring, and percent of CHX-resistant wells was calculated. Because generation of progeny expressing the cycloheximide marker requires successful production of a new macronucleus, cells whose macronuclear development was disrupted by the analog are killed in CHX.\nThis process involves de novo formation of new macronuclear telomeres in the progeny cells. Macronuclear development in ciliated protozoans such as Tetrahymena involves developmentally programmed, site-specific fragmentation of germline chromosomes into linear subchromosomes, whose ends are healed by de novo addition of telomeres. […] Because of the immediate requirement for telomere addition to fragmented DNA, it is possible that the latter process might be more sensitive to telomerase inhibition than telomere maintenance during vegetative growth. To test whether nucleoside analogs cause inhibition of macronuclear development due to a disruption of telomere formation, we mated two strains of Tetrahymena which are sensitive to cycloheximide, but whose progeny after mating are resistant to cycloheximide. Synchronized mated cells were treated with AZT at concentrations ranging from 10 μM to 5 mM for a period beginning just prior to when macronuclear development begins and continuing during macronuclear development (the period 6-24 hours after mating was initiated). […] In attempts to maximize the effect of AZT, cells were either refed at 6 hrs with 2% PPYS or Isobroth, or starved until 24 hrs (the duration of the AZT treatment). Such starvation arrests macronuclear development at an intermediate stage. When refed, macronuclear development would then be forced to proceed in the presence of the AZT. Control, unmated parental cells were also plated and exposed to drug."}, "Tetrahymena cells [3]": {"system": "Tetrahymena cells", "test": "Telomere length in vegetatively grown Tetrahymena by Southern blot", "assay_type": "cell-based, Tetrahymena thermophila", "details": "100 μM and 1 mM in Isobroth, after 5 days (16 generations)", "description": "For analysis of macronuclear DNA from cultures containing the nucleoside analog AZT (Sigma), or controls lacking analog, at various timepoints during vegetative divisions, cells from stationary stock cultures were inoculated into 25 ml thymine-deficient Iso-sensitest broth (‘Isobroth’, Oxoid USA) in 250 ml flasks. Cultures were incubated at 30° C. with shaking (100 rpm) for 48 hours. Cells were counted and plated at 1000 cells/1.5 ml in 24-well plates (Falcon) and grown at 30° C., without shaking, for 48 hours. 5 μl of these log phase cells were used to inoculate 1 ml cultures (Isobroth) containing varied concentrations of nucleoside analog. Thereafter, every 2-4 days cells were transferred, either 5 μl per well, or 1-3 μl using a multi-pronged replicator into fresh 1 ml broth containing AZT. Remaining cells were pelleted and stored at −80° C. until processed for DNA analysis.\nFor analysis of macronuclear DNA from vegetative cultures containing the nucleoside analogs Ara-G (Calbiochem), ddG (Calbiochem), or ddI (Calbiochem), or controls lacking analog, stock cultures were grown overnight in 2% PPYS as described. Cells were counted and plated at 100 cells/2 ml in 2% PPYS containing varied amounts of analog, 1% DMSO (Fisher) (as a control for ddG and Ara-G), or 2% PPYS alone. Cells were replica plated into fresh medium every 2-6 days, and remaining cells were pelleted and stored at −80° C. until processed for DNA analysis.\nFor analysis of macronuclear DNA from vegetative cultures containing d4T (Sigma) or control lacking the analog, stock cultures (SB210 VI) were grown overnight in Isobroth as described. Cells were then counted and duplicate cultures inoculated at 500 cells/5 ml Isobroth in 50 ml conical tubes, and grown at 30° C., shaking 80 rpm. 500-2000 cells were transfered to fresh broth every 2-4 days, and the remainder pelleted and stored at −80° C. until processed for DNA analysis.\nRestriction digests, agarose gel electrophoresis, transfer of DNA to Nytran filters (Schleicher and Schuell), and hybridization with ^32P-nick-trapplated or random-primed probes were carried out using standard procedures (Maniatis et.al. 1989). Telomere length was analyzed as described previously for Tetrahymena [Larson 50 Cell, 477, 1987].\nTelomere lengths in cells grown in the presence of the different analogs were monitored by Southern blot analysis of DNA samples extracted at a series of time points during the subculturings. The telomeres of cells grown vegetatively in 1 and 5 mM AZT in 2% PPYS medium were reproducibly shortened by up to an average of 170 base pairs compared with the control cultures grown in 2% PPYS in the absence of the drug (FIG. 21A and B). This shortening of telomeres occured in a concentration-dependent manner (FIG. 21B), with at least 50% of the maximal shortening effect occurring by 10 μM AZT, the lowest concentration tested."}}, "note": "Structures can show the parent of a compound that is named as a salt. Where two headings read alike, the source gives them in different places."}
{"smiles": "Nc1nc2c(ncn2[C@H]2CC[C@@H](COP(=O)(O)OP(=O)(O)OP(=O)(O)O)O2)c(=O)[nH]1", "note": "[ddGTP]", "values": [{"measurement": "IC50", "setting": "[1]", "value": "< 0.1", "unit": "µM"}]}
{"smiles": "CO[C@H]1/C=C/O[C@@]2(C)Oc3c(C)c(O)c4c(O)c(c(/C=N/N5CCN(C)CC5)c(O)c4c3C2=O)NC(=O)/C(C)=C\\C=C\\[C@H](C)[C@H](O)[C@@H](C)[C@@H](O)[C@@H](C)[C@H](OC(C)=O)[C@@H]1C", "note": "[rifampin]", "values": [{"measurement": "effect on quantitative incorporation of label and banding pattern", "setting": "[1]; concentrations up to 100 μg/ml", "value": "did not affect the quantitative incorporation of label or change the banding pattern"}]}
{"smiles": "Nc1nc2c(ncn2[C@H]2C[C@H](O)[C@@H](COP(=O)(O)OP(=O)(O)OP(=O)(O)O)O2)c(=O)[nH]1", "note": "[dGTP]", "values": [{"measurement": "Km", "setting": "[1]", "value": "1 to 2", "unit": "µM"}]}
{"smiles": "O=c1[nH]cnc2c1ncn2[C@H]1CC[C@@H](COP(=O)(O)OP(=O)(O)OP(=O)(O)O)O1", "note": "[ddITP, dideoxyinosine triphosphate]", "values": [{"measurement": "IC50", "setting": "[1]", "value": 3, "unit": "µM"}, {"measurement": "position on the telomerase RNA template of strongest chain termination", "setting": "[1]", "value": 5}]}
{"smiles": "Nc1nc2c(ncn2[C@@H]2O[C@H](COP(=O)(O)OP(=O)(O)OP(=O)(O)O)[C@@H](O)[C@@H]2O)c(=O)[nH]1", "note": "[Ara-GTP, arabinofuranyl-guanosine triphosphate]", "values": [{"measurement": "IC50", "setting": "[1]; standard assay, 32P-dGTP / 32P-NTP incorporation, 30 min at 30° C., read-out: concentration at which 50% inhibition of incorporation of 32P label occurred", "value": 0.7, "unit": "µM"}, {"measurement": "position on the telomerase RNA template of strongest chain termination", "setting": "[1]", "value": 4}]}
{"smiles": "Cc1cn([C@H]2C[C@H](O)[C@@H](COP(=O)(O)OP(=O)(O)OP(=O)(O)O)O2)c(=O)[nH]c1=O", "note": "[TTP]", "values": [{"measurement": "Km", "setting": "[1]", "value": "~5", "unit": "µM"}]}
{"smiles": "Cc1cn([C@H]2CC[C@@H](COP(=O)(O)OP(=O)(O)OP(=O)(O)O)O2)c(=O)[nH]c1=O", "note": "[ddTTP]", "values": [{"measurement": "IC50", "setting": "[1]", "value": 5, "unit": "µM"}]}
{"smiles": "Nc1ccn([C@H]2CC[C@@H](COP(=O)(O)OP(=O)(O)OP(=O)(O)O)O2)c(=O)n1", "note": "[ddCTP]", "values": [{"measurement": "effect on the telomerase reaction", "setting": "[1]", "value": "no significant effects"}]}
{"smiles": "Nc1nc2c(ncn2COCCO)c(=O)[nH]1", "note": "[Acyclo-G, Acycloguanosine]", "values": [{"measurement": "% CHX-R", "setting": "Tetrahymena cells [2]; first block for the analog", "value": 75, "unit": "%"}, {"measurement": "% CHX-R", "setting": "Tetrahymena cells [2]; second block for the analog", "value": 69, "unit": "%"}, {"measurement": "# CHX-R", "setting": "Tetrahymena cells [2]; 0.017 mM analog, first block for the analog, number of cycloheximide-resistant wells", "value": 80}, {"measurement": "irreversible disruption of macronuclear development", "setting": "Tetrahymena cells [2]; analog present during conjugation", "value": "little or no irreversible disruption"}]}
{"smiles": "[H]/N=C(/N)N[C@H]1[C@H](O)[C@@H](O)[C@H](O[C@@H]2O[C@@H](C)[C@](O)(C=O)[C@H]2O[C@@H]2O[C@@H](CO)[C@H](O)[C@@H](O)[C@@H]2NC)[C@@H](N/C(N)=N\\[H])[C@@H]1O", "note": "[Streptomycin sulfate, streptomycin sulfate]", "values": [{"measurement": "effect on amount and average length of elongation products", "setting": "[1]; 40 mM, 40 mM sodium sulfate control little decrease", "value": "dramatically reduced"}]}
{"smiles": "Cc1cn([C@H]2C=C[C@@H](CO)O2)c(=O)[nH]c1=O", "note": "[d4T, 3′ deoxy-2′,3′-didehydrothymidine]", "values": [{"measurement": "telomere length", "setting": "Tetrahymena cells [3]", "value": "produced shortened telomeres"}]}
{"smiles": "Nc1ncnc2c1ncn2[C@H]1CC[C@@H](COP(=O)(O)OP(=O)(O)OP(=O)(O)O)O1", "note": "[ddATP]", "values": [{"measurement": "effect on the telomerase reaction", "setting": "[1]", "value": "no significant effects"}]}
